Experiment [1] in a line: blockade of melanocortin 4 receptor signaling – cell-based, plate reader, cherry pick, counter-screen for LGR2 antagonist project, dose response (AID 743444).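 Also: transfected HEK 293 cells stimulated with alpha-MSH peptide; potency of inhibitors of the alpha-MSH evoked signal.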 Type of experiment: functional.
Experiment [2] can be described thus: luciferase reporter signal suppression in cells – H4 neuroglioma cells, luminescence, dose response (AID 1990). Type of experiment: functional, cell-based.
Experiment [3] can be described thus: Luminescence Cell-Based Dose Response HTS to Identify Inhibitors of 5'UTR Stem-Loop Driven Prion Protein mRNA Translation in H4 Neuroglioblastoma Cells. [Related pubchem assays: 1827 (Project Summary), 1813 (Primary HTS)]. It is filed as functional.
A short description of experiment [4]: alpha-synuclein stem-loop luciferase translation blockers – H4 neuroglioma cells, luminescence, confirmation (AID 1988). It is filed as functional, cell-based.
The nature of experiment [5]: viability loss in HEK293 cells – cell-based, plate reader, cherry-picked samples, cytotoxicity control, dose response (AID 743446). Type of experiment: functional.
Experiment [6] in a line: blockers of bursicon-stimulated LGR2 cAMP reporter – cell-based, HEK293, CRE-luciferase reporter, cherry pick, set 2, dose response (AID 743343).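 Also: transfected cells were stimulated with diluted bursicon conditioned medium after compound addition.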 It is filed as functional.
The target of experiment [7] is Luciferin 4-monooxygenase (Photinus pyralis, UniProt P08659). Briefly: inhibition of purified Photinus pyralis luciferase – biochemical, luminescence, dose response (AID 1891).
Luciferin 4-monooxygenase, sequence (P08659 whole entry): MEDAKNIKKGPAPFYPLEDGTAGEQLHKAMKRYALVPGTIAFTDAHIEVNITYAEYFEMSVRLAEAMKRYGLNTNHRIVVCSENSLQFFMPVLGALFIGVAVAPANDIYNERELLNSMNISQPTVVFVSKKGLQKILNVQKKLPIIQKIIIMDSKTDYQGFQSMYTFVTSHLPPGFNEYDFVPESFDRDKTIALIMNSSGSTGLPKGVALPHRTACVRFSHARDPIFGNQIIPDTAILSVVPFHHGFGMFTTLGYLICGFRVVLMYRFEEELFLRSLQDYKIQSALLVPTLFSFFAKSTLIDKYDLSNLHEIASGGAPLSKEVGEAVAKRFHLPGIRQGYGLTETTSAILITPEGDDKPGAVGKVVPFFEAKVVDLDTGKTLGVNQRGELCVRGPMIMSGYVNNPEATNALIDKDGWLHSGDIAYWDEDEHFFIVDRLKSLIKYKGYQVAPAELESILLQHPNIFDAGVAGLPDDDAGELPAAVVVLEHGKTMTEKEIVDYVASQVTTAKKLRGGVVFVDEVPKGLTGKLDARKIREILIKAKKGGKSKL
The nature of experiment [8]: A549 cell cytotoxicity, dose response, cytotoxicity control, plate reader, cherry-pick, antagonist series (AID 743412). Type of experiment: functional, cell-based.
Experiment [9] in a line: Luminescence-based counterscreen assay for KLF5 inhibitors: dose response cell-based high throughput screening assay to identify cytotoxic compounds using the IEC-6 intestinal epithelial cell line. [Related pubchem assays: 1700 (Primary screen.), 1834 (Confirmation screen.), 1858 (Summary AID.), 1905 (Counterscreen.)]. Type of experiment: functional.
Experiment [10] can be described thus: toxicity toward HepG2 liver cells – cell-based, plate reader, cherry-pick, antagonist series, cytotoxicity control, dose response (AID 743416). Type of experiment: functional.
The nature of experiment [11]: Luminescence Cell-Based Dose Confirmation HTS to Identify Inhibitors of Platelet Dense Granule Release. [Related pubchem assays: 1663 (Primary HTS), 1678 (Summary of Project)]. It is filed as functional.
The subject of a further experiment is Streptococcus. Briefly: Luminescence Microorganism-Based Dose Response Follow up to Identify Compounds Cytotoxic to Streptococcus. [Related pubchem assays: 1677 (Project Summary), 1915, 1914, 1902 (Retest at Dose), 1900 (Counter Screen), 1662 (Primary HTS)]. It is filed as functional, organism-based.
Experiment [12] has as its target Peroxisome proliferator-activated receptor gamma/Nuclear receptor corepressor 2 (Homo sapiens, UniProt P37231+Q9Y618). Type of experiment: functional.
Experiment [13] has as its target Photoreceptor-specific nuclear receptor (Homo sapiens, UniProt Q9Y5X4). Type of experiment: functional.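 Also: potency for compounds that break the NR2E3 corepressor complex and count as activators.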
Experiment [14] addresses T1, Corticotropin-releasing factor receptor 2/Corticotropin-releasing factor-binding protein (Homo sapiens, UniProt P24387+Q13324).
T1 sequence (Q13324 whole entry): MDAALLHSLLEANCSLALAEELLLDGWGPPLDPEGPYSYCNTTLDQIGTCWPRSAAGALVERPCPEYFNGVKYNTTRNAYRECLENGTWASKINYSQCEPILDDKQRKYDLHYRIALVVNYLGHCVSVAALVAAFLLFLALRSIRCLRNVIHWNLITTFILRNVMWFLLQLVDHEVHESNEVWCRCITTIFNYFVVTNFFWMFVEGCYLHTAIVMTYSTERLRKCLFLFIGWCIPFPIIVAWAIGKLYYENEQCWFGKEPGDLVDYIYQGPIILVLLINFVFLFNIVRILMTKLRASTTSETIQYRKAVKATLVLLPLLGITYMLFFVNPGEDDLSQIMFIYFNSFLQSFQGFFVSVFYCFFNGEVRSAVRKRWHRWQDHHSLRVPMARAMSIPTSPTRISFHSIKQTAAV
T1 sequence (P24387 whole entry): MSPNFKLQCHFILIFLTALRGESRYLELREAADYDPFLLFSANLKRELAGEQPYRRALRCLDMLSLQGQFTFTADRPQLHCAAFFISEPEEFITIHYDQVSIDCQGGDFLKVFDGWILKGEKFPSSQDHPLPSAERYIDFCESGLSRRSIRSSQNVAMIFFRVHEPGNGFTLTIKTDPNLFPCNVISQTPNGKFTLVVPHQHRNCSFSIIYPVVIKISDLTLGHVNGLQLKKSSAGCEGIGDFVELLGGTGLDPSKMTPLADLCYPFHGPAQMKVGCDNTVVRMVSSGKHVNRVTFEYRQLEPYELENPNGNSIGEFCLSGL
Briefly: activators of CRF receptor 2 with binding protein – uHTS hits, confirmation (AID 602473). It is filed as functional. The settings on record: read-out: EC50_Mean.

The target in the next experiment is T2, Insulin-degrading enzyme (Homo sapiens, UniProt P14735).
T2 sequence (P14735 whole entry): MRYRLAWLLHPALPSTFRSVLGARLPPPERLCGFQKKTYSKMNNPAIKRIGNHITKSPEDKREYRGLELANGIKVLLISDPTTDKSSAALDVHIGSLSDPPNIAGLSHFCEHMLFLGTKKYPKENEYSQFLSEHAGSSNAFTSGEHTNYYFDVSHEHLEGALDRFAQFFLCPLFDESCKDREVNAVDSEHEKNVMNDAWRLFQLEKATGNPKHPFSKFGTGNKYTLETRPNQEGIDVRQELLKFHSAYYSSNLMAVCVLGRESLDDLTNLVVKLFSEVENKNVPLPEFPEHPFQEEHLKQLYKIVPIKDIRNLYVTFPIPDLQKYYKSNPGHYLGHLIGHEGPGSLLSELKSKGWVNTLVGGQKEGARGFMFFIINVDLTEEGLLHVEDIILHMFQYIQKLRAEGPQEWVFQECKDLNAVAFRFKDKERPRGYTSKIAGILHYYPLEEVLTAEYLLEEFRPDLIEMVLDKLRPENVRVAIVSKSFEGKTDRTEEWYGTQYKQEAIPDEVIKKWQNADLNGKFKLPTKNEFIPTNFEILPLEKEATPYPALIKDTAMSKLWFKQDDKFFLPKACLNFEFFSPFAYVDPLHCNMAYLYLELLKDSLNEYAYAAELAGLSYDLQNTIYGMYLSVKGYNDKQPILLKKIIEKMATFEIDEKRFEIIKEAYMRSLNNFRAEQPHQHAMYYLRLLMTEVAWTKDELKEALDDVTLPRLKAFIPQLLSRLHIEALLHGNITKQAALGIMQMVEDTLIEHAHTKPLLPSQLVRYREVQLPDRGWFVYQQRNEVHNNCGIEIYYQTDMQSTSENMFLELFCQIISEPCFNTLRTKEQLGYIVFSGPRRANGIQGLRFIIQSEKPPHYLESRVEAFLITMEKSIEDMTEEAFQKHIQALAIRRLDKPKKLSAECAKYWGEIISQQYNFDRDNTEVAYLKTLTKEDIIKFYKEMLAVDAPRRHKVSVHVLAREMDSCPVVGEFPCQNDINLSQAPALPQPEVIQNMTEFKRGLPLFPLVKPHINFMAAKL
Briefly: Dose Response: Fluorescence polarization-based cell-based high throughput dose response assay for inhibitors of insulin-degrading enzyme (IDE). [Related pubchem assays: 434962 (Primary screen (IDE inhibitors in singlicate)), 449730 (Counterscreen (Cytotoxicity in triplicate)), 435028 (Confirmation (IDE inhibitors in triplicate)), 434984 (Summary …. Type of experiment: functional.

The nature of experiment [15]: Counterscreen for IDE inhibitors: Luminescence-based cell-based high throughput dose response assay to identify compounds that are cytotoxic to HEK cells. [Related pubchem assays: 434962 (Primary screen (IDE inhibitors in singlicate)), 449730 (Counterscreen (Cytotoxicity in triplicate)), 435028 (Confirmation (IDE inhibitors in triplicate)) …. It is filed as functional. Particulars: HEK293.

Experiment [16] is described as follows: viability of uninfected HEp-2 cells – cell-based, HTS, cytotoxicity control for RSV inhibitor project, dose response (AID 2410). It is filed as functional. The settings on record: human respiratory syncytial virus.

Calls of active or inactive are those of the source. A value given as a limit tells only on which side of the number the result lay.

Peroxisome proliferator-activated receptor gamma/Nuclear receptor corepressor 2, sequence (P37231 whole entry): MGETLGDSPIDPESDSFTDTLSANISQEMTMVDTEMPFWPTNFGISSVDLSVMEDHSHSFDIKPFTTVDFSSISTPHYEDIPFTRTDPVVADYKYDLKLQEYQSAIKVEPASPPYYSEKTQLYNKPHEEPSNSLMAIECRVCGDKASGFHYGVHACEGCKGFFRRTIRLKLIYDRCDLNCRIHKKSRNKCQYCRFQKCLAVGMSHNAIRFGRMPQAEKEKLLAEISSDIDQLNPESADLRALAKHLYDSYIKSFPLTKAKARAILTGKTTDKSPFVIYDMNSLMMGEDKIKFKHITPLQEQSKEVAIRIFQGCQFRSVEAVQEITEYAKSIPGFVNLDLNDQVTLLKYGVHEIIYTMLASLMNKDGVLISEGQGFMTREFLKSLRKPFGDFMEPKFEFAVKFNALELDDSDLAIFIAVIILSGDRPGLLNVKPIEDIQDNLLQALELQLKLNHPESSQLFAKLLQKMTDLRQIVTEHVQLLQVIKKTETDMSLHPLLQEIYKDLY
Peroxisome proliferator-activated receptor gamma/Nuclear receptor corepressor 2, sequence (Q9Y618 whole entry): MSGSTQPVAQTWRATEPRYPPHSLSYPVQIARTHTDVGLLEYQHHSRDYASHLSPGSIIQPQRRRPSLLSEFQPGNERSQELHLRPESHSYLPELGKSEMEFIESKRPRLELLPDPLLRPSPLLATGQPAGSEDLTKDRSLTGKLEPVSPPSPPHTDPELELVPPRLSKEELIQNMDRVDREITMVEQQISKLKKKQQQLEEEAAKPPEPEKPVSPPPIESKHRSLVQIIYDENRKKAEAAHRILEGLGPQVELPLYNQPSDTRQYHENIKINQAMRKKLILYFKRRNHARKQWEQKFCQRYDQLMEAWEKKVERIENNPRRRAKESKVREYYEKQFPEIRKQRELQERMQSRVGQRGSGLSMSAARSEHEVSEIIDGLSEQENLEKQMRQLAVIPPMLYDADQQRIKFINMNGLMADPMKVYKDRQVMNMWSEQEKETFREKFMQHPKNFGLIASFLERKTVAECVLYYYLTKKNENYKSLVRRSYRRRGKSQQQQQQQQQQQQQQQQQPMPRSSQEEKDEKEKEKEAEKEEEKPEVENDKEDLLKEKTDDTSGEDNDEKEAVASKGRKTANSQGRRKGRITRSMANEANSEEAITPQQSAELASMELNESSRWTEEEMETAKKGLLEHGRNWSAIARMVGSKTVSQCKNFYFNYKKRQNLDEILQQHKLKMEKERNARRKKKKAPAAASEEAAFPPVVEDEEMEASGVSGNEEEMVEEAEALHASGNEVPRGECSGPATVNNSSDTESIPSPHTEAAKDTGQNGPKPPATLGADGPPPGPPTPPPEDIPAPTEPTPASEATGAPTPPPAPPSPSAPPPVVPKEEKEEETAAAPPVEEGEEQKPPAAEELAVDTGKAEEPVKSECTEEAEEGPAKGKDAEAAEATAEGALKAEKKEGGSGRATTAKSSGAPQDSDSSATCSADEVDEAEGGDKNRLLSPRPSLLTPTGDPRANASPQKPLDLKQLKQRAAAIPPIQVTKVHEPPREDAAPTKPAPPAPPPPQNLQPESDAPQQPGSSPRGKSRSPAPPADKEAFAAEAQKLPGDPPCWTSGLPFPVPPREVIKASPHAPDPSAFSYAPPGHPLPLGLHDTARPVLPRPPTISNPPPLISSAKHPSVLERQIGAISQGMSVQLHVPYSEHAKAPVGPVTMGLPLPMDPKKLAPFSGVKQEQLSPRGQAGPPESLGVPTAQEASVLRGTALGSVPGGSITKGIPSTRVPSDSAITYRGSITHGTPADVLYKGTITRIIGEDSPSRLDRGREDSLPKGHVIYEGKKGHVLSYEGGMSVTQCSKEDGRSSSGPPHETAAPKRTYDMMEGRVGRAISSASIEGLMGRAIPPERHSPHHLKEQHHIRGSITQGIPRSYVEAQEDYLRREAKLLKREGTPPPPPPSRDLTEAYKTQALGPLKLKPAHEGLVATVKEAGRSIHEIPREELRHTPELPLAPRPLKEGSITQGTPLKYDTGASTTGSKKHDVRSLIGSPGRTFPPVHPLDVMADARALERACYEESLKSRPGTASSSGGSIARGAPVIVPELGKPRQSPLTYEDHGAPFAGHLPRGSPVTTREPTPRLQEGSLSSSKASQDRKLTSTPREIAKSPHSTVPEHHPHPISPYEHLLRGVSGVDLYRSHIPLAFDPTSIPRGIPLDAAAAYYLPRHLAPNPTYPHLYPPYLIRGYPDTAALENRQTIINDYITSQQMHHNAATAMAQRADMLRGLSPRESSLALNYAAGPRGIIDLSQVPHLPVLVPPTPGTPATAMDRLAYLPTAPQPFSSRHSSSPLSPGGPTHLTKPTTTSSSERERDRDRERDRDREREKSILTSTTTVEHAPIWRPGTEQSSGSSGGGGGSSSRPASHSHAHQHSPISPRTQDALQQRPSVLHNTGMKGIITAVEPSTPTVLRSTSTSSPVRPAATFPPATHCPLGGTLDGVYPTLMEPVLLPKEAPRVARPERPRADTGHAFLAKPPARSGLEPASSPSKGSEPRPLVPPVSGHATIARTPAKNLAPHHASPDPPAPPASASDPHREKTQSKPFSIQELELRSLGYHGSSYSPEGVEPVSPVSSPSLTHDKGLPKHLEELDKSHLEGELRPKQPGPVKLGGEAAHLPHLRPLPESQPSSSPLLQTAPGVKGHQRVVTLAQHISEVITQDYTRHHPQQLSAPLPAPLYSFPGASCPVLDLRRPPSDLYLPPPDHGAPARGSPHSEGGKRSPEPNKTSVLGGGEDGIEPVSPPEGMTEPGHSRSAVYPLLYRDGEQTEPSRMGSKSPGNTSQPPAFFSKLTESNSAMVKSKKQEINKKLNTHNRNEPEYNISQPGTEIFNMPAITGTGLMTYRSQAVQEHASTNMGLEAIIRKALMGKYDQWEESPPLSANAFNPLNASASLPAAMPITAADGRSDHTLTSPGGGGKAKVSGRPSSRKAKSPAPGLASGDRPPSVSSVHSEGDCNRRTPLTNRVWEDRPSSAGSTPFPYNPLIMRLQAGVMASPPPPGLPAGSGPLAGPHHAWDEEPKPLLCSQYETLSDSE
Photoreceptor-specific nuclear receptor, sequence (Q9Y5X4 whole entry): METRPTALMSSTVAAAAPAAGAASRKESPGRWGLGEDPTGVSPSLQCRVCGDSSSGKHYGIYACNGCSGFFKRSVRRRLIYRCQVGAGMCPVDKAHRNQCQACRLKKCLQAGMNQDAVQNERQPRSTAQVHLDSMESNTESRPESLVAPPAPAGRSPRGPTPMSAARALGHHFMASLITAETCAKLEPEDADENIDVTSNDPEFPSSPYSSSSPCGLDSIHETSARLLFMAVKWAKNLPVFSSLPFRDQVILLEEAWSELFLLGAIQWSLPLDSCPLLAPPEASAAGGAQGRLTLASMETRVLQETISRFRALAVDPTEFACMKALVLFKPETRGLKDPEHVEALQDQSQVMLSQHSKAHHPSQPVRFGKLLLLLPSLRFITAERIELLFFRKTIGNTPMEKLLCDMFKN

With `CCc1ccn2cc(-c3ccc4c(c3)OCO4)nc2c1`, the AC50 in experiment [1] is 1.5 µM (active); in [5], > 52 µM (inactive); in experiment [6] it was 1.22 µM (active); in [8], > 52 µM (inactive); in [10], > 52 µM (inactive). Besides, the EC50 was 0.239 µM (active) in experiment [2]; < 0.1 µM (active) in experiment [3]; 0.158 µM (active) in experiment [4]; 2.16 µM (active) in experiment [7]; 8.85 µM (active) in experiment [11]. Also, in [9], the IC50 is given as 21.5 µM (not active).

For `N#Cc1ccc(C(=O)n2c3ccccc3c3ccccc32)cc1`, the EC50 in the experiment with Streptococcus is > 500 µM (not active).

On to `CCCCOc1ccc(-c2c(C#N)c(S)nc(C)c2C(=O)Nc2ccccc2)cc1`, for which the figures for the IC50 in experiment [12] and in [13] were 0.778 µM (active) and 0.33 µM (active), respectively.

As for `Cc1cccc(/N=C/c2[nH]c3ccc(Br)c(Cl)c3c2O)c1`, the EC50 in experiment [14] was 0.46 µM (active). Besides, the IC50 is 38.2 µM (not active) at Insulin-degrading enzyme and 13.1 µM (not active) in experiment [15].

`COc1ccc(-c2oc(=O)c3cc(OC)c(OC)cc3c2/C=C/c2cccc([N+](=O)[O-])c2)cc1`: the CC50 in experiment [16] is 38 µM (active). The IC50 in “cells” was 14.8 µM (active).

The values above are taken from ChEMBL document CHEMBL1201862, “PubChem BioAssay data set” (2004).
